Assay results from patent US11970476B1, “6′-(4-chlorophenyl)-2′-alkoxy-3,4′-bipyridine-3′-carbonitriles as antimicrobial compounds” (KING FAISAL UNIVERSITY, priority 2023, dated 2024).

Key:
Assay type in all cases: cell-based
[1] = system: Bacillus cereus; experiment: Agar plate disc-diffusion, antibacterial inhibition zone; conditions: DMSO control zone subtracted
Protocol: (§1) The agar plate disc-diffusion method was applied. Sterilized filter papers (6 mm in diameter) were wetted with 10 μL of a solution of 6′-(4-chlorophenyl)-2′-ethoxy-3,4′-bipyridine-3′-carbonitrile (4) or 6′-(4-chlorophenyl)-2′-methoxy-3,4′-bipyridine-3′-carbonitrile (5) to be tested, containing […], and the discs were allowed to air dry. The discs were then placed onto the surface of agar plates (nutrient agar for bacteria and Sabouraud's dextrose agar for fungi) seeded with the test organism. Each plate contained 15 mL of the agar medium, previously seeded with 0.2 mL of the broth culture of each organism pregrown for 18 hours. The plates were incubated at 37° C. for 48 hours, and 72 hours for fungi. The inhibition zones were measured in mm. Discs impregnated with DMSO were used as a control, and its inhibition zone was subtracted from the tested compound actual inhibition zone.
(§2) The results of the antimicrobial testing can be observed in Tables 1 and 2, below, using ciprofloxacin as a reference.

[2] = system: Escherichia coli; experiment: as above; conditions: DMSO control zone subtracted
Protocol: as §1, §2

[3] = system: Pseudomonas aeruginosa; experiment: as above; conditions: DMSO control zone subtracted
Protocol: as §1, §2

[4] = system: Staphylococcus aureus; experiment: as above; conditions: DMSO control zone subtracted
Protocol: as §1, §2

[5] = system: Aspergillus flavus; experiment: Agar plate disc-diffusion, antifungal inhibition zone; conditions: 72 hours, DMSO control zone subtracted
Protocol: as §1, §2

[6] = system: Chrysosporium keratinophilum; experiment: as above; conditions: 72 hours, DMSO control zone subtracted
Protocol: as §1, §2

[7] = system: different microbes; experiment: Antimicrobial testing, overall statement on Tables 1 and 2; conditions: summary of Tables 1 and 2, bacteria and fungi
Protocol: as §1
Their antibacterial activity was screened against gram positive bacteria namely Bacillus cereus and Staphylococcus aureus and gram-negative bacterial strains namely Pseudomonas aeruginosa and Escherichia coli, while their antifungal activity was screened against Aspergillus flavus and Chrysosporium keratinophilum.

[8] = A = concentration of comp. = 10,000 μL
[9] = B = concentration of comp. = 30,000 μL
[10] = C = concentration of comp. = 50,000 μL

O=C(O)c1cn(C2CC2)c2cc(N3CCNCC3)c(F)cc2c1=O [Cip., ciprofloxacin, reference compound]
inhibition zone [1, 8]: 29 mm | inhibition zone [1, 9]: 30 mm | inhibition zone [1, 10]: 42 mm | inhibition zone [2, 8]: 30 mm | inhibition zone [2, 9]: 39 mm | inhibition zone [2, 10]: 60 mm | inhibition zone [3, 8]: 29 mm | inhibition zone [3, 9]: 30 mm | inhibition zone [3, 10]: 53 mm | inhibition zone [4, 8]: 43 mm | inhibition zone [4, 9]: 44 mm | inhibition zone [4, 10]: 53 mm | inhibition zone [5, 8]: 29 mm | inhibition zone [5, 9]: 30 mm | inhibition zone [5, 10]: 42 mm | inhibition zone [6, 8]: 29 mm | inhibition zone [6, 9]: 30 mm | inhibition zone [6, 10]: 53 mm

CCOc1nc(-c2ccc(Cl)cc2)cc(-c2cccnc2)c1C#N [Compound 4, 6′-(4-chlorophenyl)-2′-ethoxy-3,4′-bipyridine-3′-carbonitrile]
inhibition zone [1, 8]: 24 mm | inhibition zone [1, 9]: 27 mm | inhibition zone [1, 10]: 39 mm | inhibition zone [2, 8]: 27 mm | inhibition zone [2, 9]: 38 mm | inhibition zone [2, 10]: 52 mm | inhibition zone [3, 8]: 25 mm | inhibition zone [3, 9]: 29 mm | inhibition zone [3, 10]: 39 mm | inhibition zone [4, 8]: 15 mm | inhibition zone [4, 9]: 18 mm | inhibition zone [4, 10]: 31 mm | inhibition zone [5, 8]: 21 mm | inhibition zone [5, 9]: 26 mm | inhibition zone [5, 10]: 37 mm | inhibition zone [6, 8]: 24 mm | inhibition zone [6, 9]: 29 mm | inhibition zone [6, 10]: 42 mm | antimicrobial activities (in words) [7]: high antimicrobial activities

COc1nc(-c2ccc(Cl)cc2)cc(-c2cccnc2)c1C#N [Compound 5, 6′-(4-chlorophenyl)-2′-methoxy-3,4′-bipyridine-3′-carbonitrile]
inhibition zone [1, 8]: 26 mm | inhibition zone [1, 9]: 28 mm | inhibition zone [1, 10]: 39 mm | inhibition zone [2, 8]: 28 mm | inhibition zone [2, 9]: 37 mm | inhibition zone [2, 10]: 53 mm | inhibition zone [3, 8]: 26 mm | inhibition zone [3, 9]: 30 mm | inhibition zone [3, 10]: 42 mm | inhibition zone [4, 8]: 17 mm | inhibition zone [4, 9]: 24 mm | inhibition zone [4, 10]: 30 mm | inhibition zone [5, 8]: 25 mm | inhibition zone [5, 9]: 28 mm | inhibition zone [5, 10]: 40 mm | inhibition zone [6, 8]: 23 mm | inhibition zone [6, 9]: 28 mm | inhibition zone [6, 10]: 41 mm | antimicrobial activities (in words) [7]: high antimicrobial activities
